Experimental data taken from US20240382511A1, “NICOTINAMIDE MONONUCLEOTIDE DERIVATIVES AND USE THEREOF FOR THE TREATMENT OF HEART FAILURE WITH PRESERVED EJECTION FRACTION” (NUVAMID SA, priority 2021, published 2024).

How the values were obtained:
Type in all cases: in vivo, hamster (Golden Syrian)
[1] = tested on: free choice fed hamsters (diet-induced NASH hamster model of HFpEF); assay: Organ weights (heart, liver, lungs), normalized or not to tibia length, in diet-induced NASH hamster model of HFpEF; conditions: normalized to tibia length; after 20 weeks of diet including 5 weeks of treatment per os (compound 001 600 mg/kg, vardenafil 10 mg/kg); FIG. 11
Excerpt: (§1) Animals. Male hamsters (Golden Syrian), 4-week-old at receipt, were acclimated at least 5 days before the beginning of the study. Control animals were fed with a chow diet with normal tap water. For diet-induced NASH model, animals were fed with a free choice diet consisting of (a) a chow diet with normal water and (b) a high fat/cholesterol diet with 10% fructose enriched tap water. Food and water intake have been measured once a week. Dosage regimen and test groups. Animals were divided into 5 groups: [table] The study was conducted over 20 weeks. Treatments were administered from week 15 until the end of the experiment (duration 5 weeks), once a day, per os, at a rate of 10 ml/kg. Water was used as vehicle. Vardenafil was used as reference compound. Data analysis. All graphs represent means±standard error of mean (sem). Statistical analysis has been performed using GraphPad Prism 5 software. Single comparisons were made using Student's unpaired t-test or Mann Whitney in case of significant variance. […] During 20 weeks of diet including 5 weeks under treatment with vehicle, compound 001, vardenafil or both, body weight, food and water intake were recorded once a week. Blood was collected at week 14 and week 20 to measure plasma insulin, glucose and ALT/AST, and NT-pro BNP level was evaluated at week 20. Echocardiographic studies were assessed at week 14 and week 20. […]

[2] = tested on: free choice fed hamsters (diet-induced NASH hamster model of HFpEF); assay: Echocardiography (left ventricular function and dimensions) in diet-induced NASH hamster model of HFpEF; conditions: for cardiac parameters (overall conclusion): diet-induced NASH hamster model, end of 5-week treatment period
Excerpt: Animals. Male hamsters (Golden Syrian), 4-week-old at receipt, were acclimated at least 5 days before the beginning of the study. Control animals were fed with a chow diet with normal tap water. For diet-induced NASH model, animals were fed with a free choice diet consisting of (a) a chow diet with normal water and (b) a high fat/cholesterol diet with 10% fructose enriched tap water. Food and water intake have been measured once a week. Dosage regimen and test groups. Animals were divided into 5 groups: [table] The study was conducted over 20 weeks. Treatments were administered from week 15 until the end of the experiment (duration 5 weeks), once a day, per os, at a rate of 10 ml/kg. Water was used as vehicle. Vardenafil was used as reference compound. Echocardiography. Left ventricular function and dimensions were assessed 14 and 20 weeks after the start of diet using two-dimensional echocardiograph (VF16-5 probe, Siemens, Acuson NX3 Elite). Numeric images of the heart were obtained in parasternal long and short-axis views using or not time motion for systolic function and in apical four chambers view with doppler mode for diastolic function. Heart rate, left ventricular end-diastolic and end-systolic diameters and volumes, as well as posterior and anterior wall thicknesses in diastole and systole, mitral flow velocity (E and A waves), the isovolumic relaxation time (IVRT), and annular tissue velocity of the mitral valve (e′ and a′ peaks) were measured. Left ventricular ejection fraction, fractional shortening, E/A ratio and E/E′ ratio were then calculated. Data analysis. All graphs represent means±standard error of mean (sem). Statistical analysis has been performed using GraphPad Prism 5 software. Single comparisons were made using Student's unpaired t-test or Mann Whitney in case of significant variance. Multiple comparisons have been carried out with two-way ANOVA followed by post-hoc Bonferroni test or one-way ANOVA followed by post-hoc Dunnett or Kruskall-Wallis test in case of significant variance. For all tests, p<0.05 was considered significant.

[3] = tested on: free choice fed hamsters (diet-induced NASH hamster model of HFpEF); assay: Body weight, food and water intake in diet-induced NASH hamster model of HFpEF; conditions: treatment once a day per os from week 15, 5 weeks (compound 001 600 mg/kg, vardenafil 10 mg/kg), FIG. 5
Excerpt: as §1

[4] = tested on: free choice fed hamsters (diet-induced NASH hamster model of HFpEF); assay: Biochemical analysis (glucose, plasma insulin, ALT/AST, NT pro-BNP) in diet-induced NASH hamster model of HFpEF
Excerpt: Animals. Male hamsters (Golden Syrian), 4-week-old at receipt, were acclimated at least 5 days before the beginning of the study. Control animals were fed with a chow diet with normal tap water. For diet-induced NASH model, animals were fed with a free choice diet consisting of (a) a chow diet with normal water and (b) a high fat/cholesterol diet with 10% fructose enriched tap water. Food and water intake have been measured once a week. Dosage regimen and test groups. Animals were divided into 5 groups: [table] The study was conducted over 20 weeks. Treatments were administered from week 15 until the end of the experiment (duration 5 weeks), once a day, per os, at a rate of 10 ml/kg. Water was used as vehicle. Vardenafil was used as reference compound. Biochemical analysis. After 14 and 20 weeks of diet, blood was collected through tail vein, saphenous vein or retro orbital sinus after a 6 h fasting period to measure respectively glucose, plasma insulin and ALT/AST. After 20 weeks of diet, blood was collected and centrifuged to obtain plasma which was used to measure NT pro-BNP in plasma. Data analysis. All graphs represent means±standard error of mean (sem). Statistical analysis has been performed using GraphPad Prism 5 software. Single comparisons were made using Student's unpaired t-test or Mann Whitney in case of significant variance. Multiple comparisons have been carried out with two-way ANOVA followed by post-hoc Bonferroni test or one-way ANOVA followed by post-hoc Dunnett or Kruskall-Wallis test in case of significant variance. For all tests, p<0.05 was considered significant.

NC(=O)c1ccc[n+]([C@@H]2O[C@H](COP(=O)([O-])O)[C@@H](O)[C@H]2O)c1 [compound 001, nicotinamide mononucleotide]
lung oedema (difference between wet and dry lung weight) [1]: non significantly reduced | cardiac parameters (overall conclusion) [2]: improved most of cardiac parameters | cardiac parameters (overall conclusion) ([2]; listed as NMN): improve cardiac parameters | diastolic function ([2]; echocardiography after 20 weeks of diet including 5 weeks of treatment per os (compound 001 600 mg/kg, vardenafil 10 mg/kg)): improved diastolic function | E/A ratio ([2]; echocardiography after 20 weeks of diet including 5 weeks of treatment per os (compound 001 600 mg/kg, vardenafil 10 mg/kg), vs free choice vehicle, FIG. 8A): significant decrease in E/A ratio | E′/A′ ratio ([2]; echocardiography after 20 weeks of diet including 5 weeks of treatment per os (compound 001 600 mg/kg, vardenafil 10 mg/kg), vs free choice vehicle, FIG. 8B): increased E′/A′ ratio | E/E′ ratio ([2]; echocardiography after 20 weeks of diet including 5 weeks of treatment per os (compound 001 600 mg/kg, vardenafil 10 mg/kg), vs free choice vehicle, FIG. 8D): E/E′ ratio decreased | isovolumic relaxation time (IVRT) ([2]; echocardiography after 20 weeks of diet including 5 weeks of treatment per os (compound 001 600 mg/kg, vardenafil 10 mg/kg), vs free choice vehicle, FIG. 8E): increased to normal levels | body weight / body weight gain [3]: significant decrease in body weight | plasma insulin levels ([4]; week 20, after 5 weeks of treatment per os (compound 001 600 mg/kg, vardenafil 10 mg/kg), FIG. 9C): tended to increase plasma insulin levels | HOMA-IR index ([4]; week 20, after 5 weeks of treatment per os (compound 001 600 mg/kg, vardenafil 10 mg/kg), FIG. 9E): tended to increase plasma insulin levels and HOMA-IR index | plasma AST ([4]; week 20, after 5 weeks of treatment per os, 600 mg/kg, FIG. 9B): tendency to restore plasma AST
